Assay results published in PMC6627609, “Targeting Quorum Sensing: High-Throughput Screening to Identify Novel LsrK Inhibitors” (International Journal of Molecular Sciences, 2019).
Counter-ions that a name gives are not always drawn.

molecular target: LsrK (Salmonella typhimurium, UniProt Q8ZKQ6); assay: biochemical; assay type: biochemical, S. typhimurium; settings: not given
Sequence (Q8ZKQ6 whole entry): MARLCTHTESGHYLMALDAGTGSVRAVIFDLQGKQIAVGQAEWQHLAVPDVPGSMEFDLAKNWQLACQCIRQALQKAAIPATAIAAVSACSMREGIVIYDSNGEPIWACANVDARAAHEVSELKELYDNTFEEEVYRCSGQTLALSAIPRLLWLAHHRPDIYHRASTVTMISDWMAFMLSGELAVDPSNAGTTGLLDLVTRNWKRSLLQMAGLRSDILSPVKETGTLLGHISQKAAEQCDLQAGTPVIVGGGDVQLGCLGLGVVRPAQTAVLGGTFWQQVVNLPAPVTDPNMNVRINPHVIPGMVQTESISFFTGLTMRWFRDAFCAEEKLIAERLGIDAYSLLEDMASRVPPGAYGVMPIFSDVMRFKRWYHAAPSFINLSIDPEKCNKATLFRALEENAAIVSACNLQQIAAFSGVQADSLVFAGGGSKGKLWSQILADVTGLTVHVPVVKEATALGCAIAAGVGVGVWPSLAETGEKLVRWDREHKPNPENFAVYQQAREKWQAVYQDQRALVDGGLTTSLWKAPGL

| Compound | inhibition at 50 µM [%] | IC50 [µM] |
| --- | --- | --- |
| COc1cc([C@@H]2c3cc4c(cc3[C@@H](O[C@@H]3O[C@@H]5CO[C@@H](c6cccs6)O[C@H]5[C@H](O)[C@H]3O)[C@H]3COC(=O)[C@H]23)OCO4)cc(OC)c1O [TENIPOSIDE] | 2 | – |
| COc1cc2nc(N3CCN(C(=O)C4CCCO4)CC3)nc(N)c2cc1OC (centres unmarked) [TERAZOSIN HYDROCHLORIDE] | 1 | – |
| CN(C/C=C/C#CC(C)(C)C)Cc1cccc2ccccc12 [TERBINAFINE HYDROCHLORIDE] | 1 | – |
| N#Cc1c(Cl)c(Cl)c(Cl)c(C#N)c1Cl [TETRACHLOROISOPHTHALONITRILE] | 138 | 9 |
| CN(C)[C@@H]1C(O)=C(C(N)=O)C(=O)[C@@]2(O)C(O)=C3C(=O)c4c(O)cccc4[C@@](C)(O)[C@H]3C[C@@H]12 [TETRACYCLINE HYDROCHLORIDE] | 114 | – |
| O=C(O[C@@H]1Cc2c(O)cc(O)cc2O[C@@H]1c1cc(O)c(=O)c2c(O)c(O)cc([C@H]3Oc4cc(O)cc(O)c4C[C@H]3O)c2c1)c1cc(O)c(O)c(O)c1 [THEAFLAVIN MONOGALLATES] | 129 | – |
| O=c1c(O)cc([C@H]2Oc3cc(O)cc(O)c3C[C@H]2O)cc2c([C@H]3Oc4cc(O)cc(O)c4C[C@H]3O)cc(O)c(O)c12 [THEAFLAVIN] | 133 | – |
| CCNC(=O)CC[C@H](N)C(=O)O [THEANINE] | 1 | – |
| Cn1cnc2c1c(=O)[nH]c(=O)n2C [THEOBROMINE] | 0 | – |
| c1ccc2[nH]c(-c3cscn3)nc2c1 [THIABENDAZOLE] | 5 | – |
| Nc1nc2nc[nH]c2c(=S)[nH]1 [THIOGUANINE] | 1 | – |
| S=P(N1CC1)(N1CC1)N1CC1 [THIOTEPA] | 14 | – |
| CN(C)C(=S)SSC(=S)N(C)C [THIRAM] | 104 | – |
| COc1ccc(CN(CCN(C)C)c2ncccn2)cc1 [THONZYLAMINE HYDROCHLORIDE, reference compound] | 112 | 24 |
| CC1=CC(=O)C(C(C)C)=CC1=O [THYMOQUINONE] | 2 | – |
| CC1(C)S[C@@H]2[C@H](NC(=O)[C@H](C(=O)O)c3ccsc3)C(=O)N2[C@H]1C(=O)O [TICARCILLIN DISODIUM] | 0 | – |
| Clc1ccccc1CN1CCc2sccc2C1 [TICLOPIDINE HYDROCHLORIDE] | 1 | – |
| CC[C@H]1OC(=O)C[C@@H](O)[C@H](C)[C@@H](O[C@@H]2O[C@H](C)[C@@H](O)[C@H](N(C)C)[C@H]2O)[C@@H](CCN2C[C@H](C)C[C@H](C)C2)C[C@@H](C)C(=O)/C=C/C(C)=C/[C@@H]1CO[C@@H]1O[C@H](C)[C@@H](O)[C@@H](OC)[C@H]1OC [TILMICOSIN] | 16 | – |
| CCS(=O)(=O)CCn1c([N+](=O)[O-])cnc1C [TINIDAZOLE] | 1 | – |
| Clc1ccc(C(Cn2ccnc2)OCc2ccsc2Cl)c(Cl)c1 (centres unmarked) [TIOCONAZOLE] | 2 | – |

| Compound | inhibition at 50 µM [%] | IC50 [µM] |
| --- | --- | --- |
| O=c1oc2cc(O)ccc2s1 [TIOXOLONE] | 88 | – |
| NC[C@H]1O[C@H](O[C@H]2[C@H](O)[C@@H](O[C@H]3O[C@H](CO)[C@@H](O)[C@H](N)[C@H]3O)[C@H](N)C[C@@H]2N)[C@H](N)C[C@@H]1O [TOBRAMYCIN] | 0 | – |
| CCOC(=O)NNc1nncc2ccccc12 [TODRALAZINE HYDROCHLORIDE] | 2 | – |
| Cc1c(Cl)cccc1Nc1ccccc1C(=O)O [TOLFENAMIC ACID] | 97 | – |
| Cc1ccc(C(=O)c2ccc(CC(=O)O)n2C)cc1 [TOLMETIN SODIUM] | 1 | – |
| C[C@H]1CC[C@]2(NC1)O[C@H]1C[C@H]3[C@@H]4CC[C@H]5C[C@@H](O[C@@H]6O[C@H](CO)[C@H](O[C@@H]7O[C@H](CO)[C@@H](O)[C@H](O[C@@H]8OC[C@@H](O)[C@H](O)[C@H]8O)[C@H]7O[C@@H]7O[C@H](CO)[C@@H](O)[C@H](O)[C@H]7O)[C@H](O)[C@H]6O)CC[C@]5(C)[C@H]4CC[C@]3(C)[C@H]1[C@@H]2C [TOMATINE] | 2 | – |
| CC1(C)O[C@@H]2[C@@H](CO[C@@]3(COS(N)(=O)=O)OC(C)(C)O[C@@H]23)O1 [TOPIRAMATE] | 1 | – |
| CC[C@@]1(O)C(=O)OCc2c1cc1n(c2=O)Cc2cc3c(CN(C)C)c(O)ccc3nc2-1 [TOPOTECAN HYDROCHLORIDE] | 0 | – |
| Cc1ccc(S(=O)(=O)NCl)cc1 [TOSYL[…]] | 3 | – |
| CC(=O)Oc1ccc(/C=C/c2cc(OC(C)=O)cc(OC(C)=O)c2)cc1 [TRIACETYLRESVERATROL] | 1 | – |
| C[C@]12C=CC(=O)C=C1CC[C@H]1[C@@H]3C[C@@H](O)[C@](O)(C(=O)CO)[C@@]3(C)C[C@H](O)[C@@]12F [TRIAMCINOLONE] | 11 | – |
| NS(=O)(=O)c1cc2c(cc1Cl)NC(C(Cl)Cl)NS2(=O)=O (centres unmarked) [TRICHLORMETHIAZIDE] | 1 | – |
| Oc1cc(Cl)ccc1Oc1ccc(Cl)cc1Cl [TRICLOSAN] | 2 | – |
| CN(C)CCCN1c2ccccc2Sc2ccc(C(F)(F)F)cc21 [TRIFLUPROMAZINE HYDROCHLORIDE] | 122 | – |
| COc1cc(Cc2cnc(N)nc2N)cc(OC)c1OC [TRIMETHOPRIM] | 0 | – |
| CC(CN(C)C)CN1c2ccccc2CCc2ccccc21 (centres unmarked) [TRIMIPRAMINE MALEATE] | 111 | – |
| CN(C)CCN(Cc1ccccc1)c1ccccn1 [TRIPELENNAMINE CITRATE] | 2 | – |
| Cc1c(C)c2c(c(C)c1O)CCC(C)(C(=O)O)O2 (centres unmarked) [TROLOX] | 0 | – |
| N[C@@H](Cc1ccc(O)cc1)C(=O)O [TYROSINE] | 1 | – |
| COC1=C(OC)C(=O)C(C/C=C(\C)CC/C=C(\C)CC/C=C(\C)CC/C=C(\C)CC/C=C(\C)CC/C=C(\C)CC/C=C(\C)CC/C=C(\C)CC/C=C(\C)CCC=C(C)C)=C(C)C1=O [UBIDECARENEONE] | 1 | – |

| Compound | inhibition at 50 µM [%] | IC50 [µM] |
| --- | --- | --- |
| C=CCCCCCCCCC(=O)O [UNDECYLENIC ACID] | 1 | – |
| COc1ccccc1N1CCN(CCCNc2cc(=O)n(C)c(=O)n2C)CC1 [URAPIDIL HYDROCHLORIDE] | 1 | – |
| CC(=O)c1c(O)c(C)c(O)c2c1OC1=CC(=O)C(C(C)=O)C(=O)C12C (centres unmarked) [USNIC ACID] | 204 | – |
| CCC(C)C(=O)O[C@@H]1C[C@@]2(C)[C@H](c3ccoc3)OC(=O)CC23OC2(C)O[C@]14[C@]1(C)[C@@H](CC(=O)OC)C5(C)CC1(O)[C@](O)(C5OC(=O)C1(C)OC1C)[C@@H](OC(C)=O)[C@]34O2 (some centres unmarked) [UTILIN] | 1 | – |
| CC(C)[C@H](N)C(=O)OCCOCn1cnc2c(=O)[nH]c(N)nc21 [VALACYCLOVIR HYDROCHLORIDE] | 2 | – |
| CCCCC(=O)Oc1ccccc1C(=O)O [VALERYL SALYCILATE] | 1 | – |
| CCCC(CCC)C(=O)O [VALPROATE SODIUM] | 0 | – |
| CN[C@H](CC(C)C)C(=O)N[C@H]1C(=O)N[C@@H](CC(N)=O)C(=O)N[C@H]2C(=O)N[C@H]3C(=O)N[C@H](C(=O)N[C@H](C(=O)O)c4cc(O)cc(O)c4-c4cc3ccc4O)[C@H](O)c3ccc(c(Cl)c3)Oc3cc2cc(c3O[C@@H]2O[C@H](CO)[C@@H](O)[C@H](O)[C@H]2O[C@H]2C[C@](C)(N)[C@H](O)[C@H](C)O2)Oc2ccc(cc2Cl)[C@H]1O [VANCOMYCIN HYDROCHLORIDE] | 0 | – |
| CCCc1nc(C)c2c(=O)[nH]c(-c3cc(S(=O)(=O)N4CCN(CC)CC4)ccc3OCC)nn12 [VARDENAFIL HYDROCHLORIDE] | 1 | – |
| CC(=O)O[C@H]1C[C@@H]2CC[C@@H]3[C@H](CC[C@@]4(C)[C@H]3C[C@H]([N+]3(C)CCCCC3)[C@@H]4OC(C)=O)[C@@]2(C)C[C@@H]1N1CCCCC1 [VECURONIUM BROMIDE] | 1 | – |
| COc1ccc(CCN(C)CCCC(C#N)(c2ccc(OC)c(OC)c2)C(C)C)cc1OC (centres unmarked) [VERAPAMIL HYDROCHLORIDE] | 1 | – |
| OC1CCCCC1N1CCC(c2ccccc2)CC1 (centres unmarked) [VESAMICOL HYDROCHLORIDE] | 1 | – |
| Nc1ncnc2c1ncn2[C@@H]1O[C@H](CO)[C@@H](O)[C@@H]1O [VIDARABINE] | 0 | – |
| C=CC(N)CCC(=O)O (centres unmarked) [VIGABATRIN] | 1 | – |
| O=c1c2ccccc2oc2ccccc12 [XANTHONE] | 1 | – |
| Nc1nc(=O)c2[nH]c(=O)cnc2[nH]1 [XANTHOPTERIN] | 2 | – |
| COc1cc(O)c(C(C)=O)c(OC)c1 [XANTHOXYLIN] | 0 | – |
| Cc1cccc(C)c1N=C1NCCCS1 [XYLAZINE] | 0 | – |
| Cc1cc(C(C)(C)C)cc(C)c1CC1=NCCN1 [XYLOMETAZOLINE HYDROCHLORIDE] | 1 | – |

same assay, conditions: 50 µM

| Compound | Inhibition (%) |
| --- | --- |
| CC(C)(C)NCC(O)c1cc(O)cc(O)c1.CC(C)(C)NCC(O)c1cc(O)cc(O)c1.O=S(=O)(O)O (centres unmarked) [TERBUTALINE HEMISULFATE] | 1 |
| Cl.c1ccc(C2CN3CCSC3=N2)cc1 (centres unmarked) [TETRAMIZOLE HYDROCHLORIDE] | 22 |
| O=c1cccc2n1C[C@@H]1C[C@H]2CN2CCCC[C@H]12.[O-][Cl+3]([O-])([O-])O [THERMOPSINE PERCHLORATE] | 0 |
| O=C(O)CCCCC1CCSS1 (centres unmarked) [THIOCTIC ACID] | 170% |
| CN(C)CCOc1ccc(/C(=C(/CCCl)c2ccccc2)c2ccccc2)cc1 [TOREMIPHENE CITRATE] | 138 |
| Cl.Cl.NCCNCCNCCN [TRIENTINE HYDROCHLORIDE] | 13 |
| O=C([O-])CN(CCN(CC(=O)[O-])CC(=O)O)CC(=O)[O-].[Na+].[Na+].[Na+] [TRISODIUM ETHYLENEDIAMINE TETRACETATE] | 1 |
| COc1cc2c3cc1Oc1cc(ccc1O)C[C@@H]1c4c(cc(OC)c(O)c4Oc4ccc(cc4)C[C@@H]3N(C)CC2)CC[N+]1(C)C.Cl.O.O.O.O.O.[Cl-] [TUBOCURARINE CHLORIDE] | 0 |
| CC[C@H]1OC(=O)C[C@@H](O)[C@H](C)[C@@H](O[C@@H]2O[C@H](C)[C@@H](O[C@H]3C[C@@](C)(O)[C@@H](O)[C@H](C)O3)[C@H](N(C)C)[C@H]2O)[C@@H](CC=O)C[C@@H](C)C(=O)/C=C/C(C)=C/[C@@H]1CO[C@@H]1O[C@H](C)[C@@H](O)[C@@H](OC)[C@H]1OC [TYLOSIN TARTRATE] | 1 |
| O=c1ccn([C@@H]2O[C@H](COP(=O)([O-])OP(=O)([O-])OP(=O)([O-])O)[C@@H](O)[C@H]2O)c(=O)[nH]1.[Na+].[Na+].[Na+] [URIDINE TRIPHOSPHATE TRISODIUM] | 1 |
